Some test systems named below: DLD-1 colon; KM20L2 colon; P388 leukemia; P388/ADR leukemia; SN12K1 renal; XF 498 CNS; LXFL 529 NSCLC.
What all share (experiment): NCI tumour cell line growth inhibition, 48 h

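Assay format: 96-well plates, 48-hour exposure. The concentration for full growth arrest is given as TGI.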

Turning to `CC(O)C(O)C(N)CC=O` (stereo not given), the TGI in the experiment with DLD-1 colon is > 500 µM; in the experiment on KM20L2 colon it was > 500 µM; in the experiment with P388 leukemia, > 500 µM; with P388/ADR leukemia, > 500 µM; in the experiment on SN12K1 renal it was > 500 µM; in the experiment with XF 498 CNS it was > 414 µM.

With `O=S(O)c1cc(Cl)cc(Cl)c1O`, the TGI in the experiment on DLD-1 colon, in the experiment on LXFL 529 NSCLC and with XF 498 CNS was > 100 µM each time.

For the compound `[C-]#[O+].[C-]#[O+].[Ir].[O-]c1cccc2cccnc12`, the TGI with DLD-1 colon is > 100 µM.

Consider `COc1cccc(-c2nc3c(C(=O)NCCN(C)C)cccc3[nH]2)c1`, for which the TGI in the experiment on DLD-1 colon worked out at 63.1 µM; with KM20L2 colon, 39 µM; in the experiment on P388 leukemia, 22.2 µM; with P388/ADR leukemia, 41.9 µM; in the experiment on SN12K1 renal, 30.7 µM.
